From patent US12435060B2, “Acylamino bridged heterocyclic compound, and composition and application thereof” (BEIJING SCITECH-MQ PHARMACEUTICALS LIMITED, priority 2019, dated 2025)

Tested on: HT29 cells
Experiment: Inhibition of cell necrosis (CCK8 method), induced programmed necrosis of HT29 cells
Assay type: cell-based
Details: Homo sapiens, HT-29; rescue from necrosis induced by TNF-α 20 ng/mL, AT-406 1 μM, Z-VAD-FMK 20 μM; 16-20 hours; CCK-8, OD 450 nm
Summary of the method: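 HT29 cells in McCOY's 5A with 10% FBS were pre-treated for 30 min with compound (9 fourfold steps, 25000 to 0.38 nM final, 0.25% DMSO). Necrosis was then induced with TNF-α 20 ng/mL, AT-406 1 μM and Z-VAD-FMK 20 μM for 16-20 h. Viability was read by CCK-8 OD450, normalized between uninduced and induced wells, and IC50 was curve-fitted.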

| Structure (SMILES) | IC50 |
| --- | --- |
| CC(C)(C)OCCOc1ccc(C(F)(F)F)c(-c2ccnc(NC(=O)c3nnc(CC4CCCC4)[nH]3)c2)c1 [Example 293, 5-(cyclopentylmethyl)-N-(4-(5-(2-(tert-butoxy)ethoxy)-2-(trifluoromethyl)phenyl)pyridin-2-yl)-4H-1,2,4-triazole-3-carboxamide] | ≤ 100 nM |
| CC(C)(C)OCCOc1ccc(C(F)(F)F)c(-c2ccnc(NC(=O)c3nnc(CC4CCCCC4)[nH]3)c2)c1 [Example 294, 5-(cyclohexylmethyl)-N-(4-(5-(2-(tert-butoxy)ethoxy)-2-(trifluoromethyl)phenyl)pyridin-2-yl)-4H-1,2,4-triazole-3-carboxamide] | ≤ 100 nM |
| COCCCOc1ccc(C(F)(F)F)c(-c2ccnc(NC(=O)c3nnc(Cc4ccccc4)[nH]3)c2)c1 [Example 295, 5-benzyl-N-(4-(5-(3-methoxypropoxy)-2-(trifluoromethyl)phenyl)pyridin-2-yl)-4H-1,2,4-triazole-3-carboxamide] | ≤ 100 nM |
| COCCCOc1ccc(C(F)(F)F)c(-c2ccnc(NC(=O)c3nnc(Cc4ccccc4F)[nH]3)c2)c1 [Example 296, 5-(2-fluorobenzyl)-N-(4-(5-(3-methoxypropoxy)-2-(trifluoromethyl)phenyl)pyridin-2-yl)-4H-1,2,4-triazole-3-carboxamide] | ≤ 100 nM |
| COCCCOc1ccc(C(F)(F)F)c(-c2ccnc(NC(=O)c3nnc(CC4CCCC4)[nH]3)c2)c1 [Example 297, 5-(cyclopentylmethyl)-N-(4-(5-(3-methoxypropoxy)-2-(trifluoromethyl)phenyl)pyridin-2-yl)-4H-1,2,4-triazole-3-carboxamide] | ≤ 100 nM |
| COCCCOc1ccc(C(F)(F)F)c(-c2ccnc(NC(=O)c3nnc(CC4CCCCC4)[nH]3)c2)c1 [Example 298, 5-(cyclohexylmethyl)-N-(4-(5-(3-methoxypropoxy)-2-(trifluoromethyl)phenyl)pyridin-2-yl)-4H-1,2,4-triazole-3-carboxamide] | ≤ 100 nM |
| O=C(Nc1cc(-c2cc(OCC3CCOCC3)ccc2C(F)(F)F)ccn1)c1nnc(Cc2ccccc2)[nH]1 [Example 299, 5-benzyl-N-(4-(5-((tetrahydro-2H-pyran-4-yl)methoxy)-2-(trifluoromethyl)phenyl)pyridin-2-yl)-4H-1,2,4-triazole-3-carboxamide] | ≤ 100 nM |
| O=C(Nc1cc(-c2cc(OCC3CCOCC3)ccc2C(F)(F)F)ccn1)c1nnc(Cc2ccccc2F)[nH]1 [Example 300, 5-(2-fluorobenzyl)-N-(4-(5-((tetrahydro-2H-pyran-4-yl)methoxy)-2-(trifluoromethyl)phenyl)pyridin-2-yl)-4H-1,2,4-triazole-3-carboxamide] | ≤ 100 nM |
| O=C(Nc1cc(-c2cc(OCC3CCOCC3)ccc2C(F)(F)F)ccn1)c1nnc(Cc2cccc(F)c2)[nH]1 [Example 301, 5-(3-fluorobenzyl)-N-(4-(5-((tetrahydro-2H-pyran-4-yl)methoxy)-2-(trifluoromethyl)phenyl)pyridin-2-yl)-4H-1,2,4-triazole-3-carboxamide] | ≤ 100 nM |
| O=C(Nc1cc(-c2cc(OCC3CCOCC3)ccc2C(F)(F)F)ccn1)c1nnc(Cc2ccc(F)cc2)[nH]1 [Example 302, 5-(4-fluorobenzyl)-N-(4-(5-((tetrahydro-2H-pyran-4-yl)methoxy)-2-(trifluoromethyl)phenyl)pyridin-2-yl)-4H-1,2,4-triazole-3-carboxamide] | ≤ 100 nM |
| O=C(Nc1cc(-c2cc(OCC3CCOCC3)ccc2C(F)(F)F)ccn1)c1nnc(CC2CCCC2)[nH]1 [Example 303, 5-(cyclopentylmethyl)-N-(4-(5-((tetrahydro-2H-pyran-4-yl)methoxy)-2-(trifluoromethyl)phenyl)pyridin-2-yl)-4H-1,2,4-triazole-3-carboxamide] | ≤ 100 nM |
| O=C(Nc1cc(-c2cc(OCC3CCOCC3)ccc2C(F)(F)F)ccn1)c1nnc(CC2CCCCC2)[nH]1 [Example 304, 5-(cyclohexylmethyl)-N-(4-(5-((tetrahydro-2H-pyran-4-yl)methoxy)-2-(trifluoromethyl)phenyl)pyridin-2-yl)-4H-1,2,4-triazole-3-carboxamide] | ≤ 100 nM |
| O=C(Nc1cc(-c2cc(OCCC3CCOCC3)ccc2C(F)(F)F)ccn1)c1nnc(Cc2ccccc2)[nH]1 [Example 305, 5-benzyl-N-(4-(5-(2-(tetrahydro-2H-pyran-4-yl)ethoxy)-2-(trifluoromethyl)phenyl)pyridin-2-yl)-4H-1,2,4-triazole-3-carboxamide] | ≤ 100 nM |
| O=C(Nc1cc(-c2cc(OCCC3CCOCC3)ccc2C(F)(F)F)ccn1)c1nnc(Cc2ccccc2F)[nH]1 [Example 306, 5-(2-fluorobenzyl)-N-(4-(5-(2-(tetrahydro-2H-pyran-4-yl)ethoxy)-2-(trifluoromethyl)phenyl)pyridin-2-yl)-4H-1,2,4-triazole-3-carboxamide] | ≤ 100 nM |
| O=C(Nc1cc(-c2cc(OCCC3CCOCC3)ccc2C(F)(F)F)ccn1)c1nnc(Cc2cccc(F)c2)[nH]1 [Example 307, 5-(3-fluorobenzyl)-N-(4-(5-(2-(tetrahydro-2H-pyran-4-yl)ethoxy)-2-(trifluoromethyl)phenyl)pyridin-2-yl)-4H-1,2,4-triazole-3-carboxamide] | ≤ 100 nM |
| O=C(Nc1cc(-c2cc(OCCC3CCOCC3)ccc2C(F)(F)F)ccn1)c1nnc(Cc2ccc(F)cc2)[nH]1 [Example 308, 5-(4-fluorobenzyl)-N-(4-(5-(2-(tetrahydro-2H-pyran-4-yl)ethoxy)-2-(trifluoromethyl)phenyl)pyridin-2-yl)-4H-1,2,4-triazole-3-carboxamide] | ≤ 100 nM |
| O=C(Nc1cc(-c2cc(OCCC3CCOCC3)ccc2C(F)(F)F)ccn1)c1nnc(CC2CCCC2)[nH]1 [Example 309, 5-(cyclopentylmethyl)-N-(4-(5-(2-(tetrahydro-2H-pyran-4-yl)ethoxy)-2-(trifluoromethyl)phenyl)pyridin-2-yl)-4H-1,2,4-triazole-3-carboxamide] | ≤ 100 nM |
| O=C(Nc1cc(-c2cc(OCCC3CCOCC3)ccc2C(F)(F)F)ccn1)c1nnc(CC2CCCCC2)[nH]1 [Example 310, 5-(cyclohexylmethyl)-N-(4-(5-(2-(tetrahydro-2H-pyran-4-yl)ethoxy)-2-(trifluoromethyl)phenyl)pyridin-2-yl)-4H-1,2,4-triazole-3-carboxamide] | ≤ 100 nM |
| C#Cc1ccc(OCCOC(C)(C)C)cc1-c1ccnc(NC(=O)c2nnc(Cc3ccccc3)[nH]2)c1 [Example 311, 5-benzyl-N-(4-(5-(2-(tert-butoxy)ethoxy)-2-ethynylphenyl)pyridin-2-yl)-4H-1,2,4-triazole-3-carboxamide] | 100 to 1000 nM |
| CC(C)(O)CCCOc1ccc(F)c(-c2ccnc(NC(=O)c3nnc(Cc4ccccc4)[nH]3)c2)c1 [Example 312, 5-benzyl-N-(4-(2-fluoro-5-((4-hydroxy-4-methylpentyl)oxy)phenyl)pyridin-2-yl)-4H-1,2,4-triazole-3-carboxamide] | 100 to 1000 nM |
| CC(C)(O)CCCOc1ccc(F)c(-c2ccnc(NC(=O)c3nnc(Cc4ccccc4F)[nH]3)c2)c1 [Example 313, 5-(2-fluorobenzyl)-N-(4-(2-fluoro-5-((4-hydroxy-4-methylpentyl)oxy)phenyl)pyridin-2-yl)-4H-1,2,4-triazole-3-carboxamide] | 100 to 1000 nM |
| CCC(O)(CC)CCCOc1ccc(F)c(-c2ccnc(NC(=O)c3nnc(Cc4ccccc4F)[nH]3)c2)c1 [Example 314, N-(4-(5-((4-ethyl-4-hydroxyhexyl)oxy)-2-fluorophenyl)pyridin-2-yl)-5-(2-fluorobenzyl)-4H-1,2,4-triazole-3-carboxamide] | 100 to 1000 nM |
| O=C(Nc1cc(-c2cc(OCC3CCOCC3)ccc2F)ccn1)c1nnc(Cc2ccccc2F)[nH]1 [Example 315, 5-(2-fluorobenzyl)-N-(4-(2-fluoro-5-((tetrahydro-2H-pyran-4-yl)methoxy)phenyl)pyridin-2-yl)-4H-1,2,4-triazole-3-carboxamide] | 100 to 1000 nM |
| O=C(Nc1cc(-c2cc(OCCC3CCOCC3)ccc2F)ccn1)c1nnc(Cc2ccccc2F)[nH]1 [Example 316, N-(4-(2-fluoro-5-(2-(tetrahydro-2H-pyran-4-yl)ethoxy)phenyl)pyridin-2-yl)-5-(2-fluorobenzyl)-4H-1,2,4-triazole-3-carboxamide] | 100 to 1000 nM |
| O=C(Nc1cc(-c2cc(OCCC3CCOCC3)ccc2F)ccn1)c1nnc(CC2CCCCC2)[nH]1 [Example 317, 5-(cyclohexylmethyl)-N-(4-(2-fluoro-5-(2-(tetrahydro-2H-pyran-4-yl)ethoxy)phenyl)pyridin-2-yl)-4H-1,2,4-triazole-3-carboxamide] | ≤ 100 nM |
| CC(C)(O)CCCOc1ccc(F)c(-c2cc(NC(=O)c3nnc(Cc4ccccc4F)[nH]3)ncc2F)c1 [Example 318, N-(5-fluoro-4-(2-fluoro-5-((4-hydroxy-4-methylpentyl)oxy)phenyl)pyridin-2-yl)-5-(2-fluorobenzyl)-4H-1,2,4-triazole-3-carboxamide] | ≤ 100 nM |
| CC(C)(O)CCCOc1ccc(F)c(-c2cc(NC(=O)c3nnc(CC4CCCCC4)[nH]3)ncc2F)c1 [Example 319, 5-(cyclohexylmethyl)-N-(5-fluoro-4-(2-fluoro-5-((4-hydroxy-4-methylpentyl)oxy)phenyl)pyridin-2-yl)-4H-1,2,4-triazole-3-carboxamide] | ≤ 100 nM |
| CC(C)(O)CCCOc1ccc(F)c(-c2cc(NC(=O)c3nnc(Cc4ccccc4F)[nH]3)ncc2Cl)c1 [Example 320, N-(5-chloro-4-(2-fluoro-5-((4-hydroxy-4-methylpentyl)oxy)phenyl)pyridin-2-yl)-5-(2-fluorobenzyl)-4H-1,2,4-triazole-3-carboxamide] | 100 to 1000 nM |
| CC(C)(O)CCCOc1ccc(F)c(-c2cc(NC(=O)c3nnc(CC4CCCCC4)[nH]3)ncc2Cl)c1 [Example 321, N-(5-chloro-4-(2-fluoro-5-((4-hydroxy-4-methylpentyl)oxy)phenyl)pyridin-2-yl)-5-(cyclohexylmethyl)-4H-1,2,4-triazole-3-carboxamide] | 100 to 1000 nM |
